ChEMBL document CHEMBL1201862, “PubChem BioAssay data set” (2004)
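Protocol summary: plate cells (96-well), add compound at 5 concentrations, incubate 48 h, interpolate endpoints linearly. Here, GI50 denotes the concentration required for 50% inhibition of growth.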 Activity calls are given as the source filed them. Cut-off read from the data, not from the text of the source: active = GI50 up to about 1.1 µM and inactive = higher.

Key:
Assay in all cases: NCI-60 cell line screen, 48 h
[1] = system: PC-3
[2] = system: KM12
[3] = system: T47D
[4] = system: UACC-62
[5] = system: A549
[6] = system: SR
[7] = system: LOX IMVI
[8] = system: RXF 393
[9] = system: IGROV-1
[10] = system: SF-295
[11] = system: EKVX
[12] = system: UACC-257
[13] = system: HOP-62
[14] = system: TK-10
[15] = system: MDA-MB-231
[16] = system: OVCAR-5
[17] = system: MDA-MB-435
[18] = system: NCI-H23
[19] = system: DU-145
[20] = system: U-251

| Compound | GI50 [1] | GI50 [2] | GI50 [3] | GI50 [4] | GI50 [5] | GI50 [6] | GI50 [7] | GI50 [8] | GI50 [9] | GI50 [10] | GI50 [11] | GI50 [12] | GI50 [13] | GI50 [14] | GI50 [15] | GI50 [16] | GI50 [17] | GI50 [18] | GI50 [19] | GI50 [20] |
| --- | --- | --- | --- | --- | --- | --- | --- | --- | --- | --- | --- | --- | --- | --- | --- | --- | --- | --- | --- | --- |
| CCOC(=O)/C=C/CCC(C)(C)COC(C)=O | > 10 µM (inactive) | > 10 µM (inactive) | > 10 µM (inactive) | > 10 µM (inactive) | > 10 µM (inactive) | > 10 µM (inactive) | > 10 µM (inactive) | > 10 µM (inactive) | > 10 µM (inactive) | > 10 µM (inactive) | > 10 µM (inactive) | > 10 µM (inactive) | > 10 µM (inactive) | > 10 µM (inactive) | > 10 µM (inactive) | > 10 µM (inactive) | > 10 µM (inactive) | > 10 µM (inactive) | > 10 µM (inactive) | > 10 µM (inactive) |
| Cc1ccc(CC[PH](=O)CCc2ccc(C)nc2)cn1 | > 100 µM (inactive) | > 100 µM (inactive) | > 100 µM (inactive) | > 100 µM (inactive) | – | > 100 µM (inactive) | > 100 µM (inactive) | > 100 µM (inactive) | > 100 µM (inactive) | > 100 µM (inactive) | > 100 µM (inactive) | > 100 µM (inactive) | > 100 µM (inactive) | > 100 µM (inactive) | > 100 µM (inactive) | > 100 µM (inactive) | > 100 µM (inactive) | > 100 µM (inactive) | > 100 µM (inactive) | > 100 µM (inactive) |
| CN(C)CCNS(=O)(=O)N(C)C | > 100 µM (inactive) | > 100 µM (inactive) | > 100 µM (inactive) | > 100 µM (inactive) | > 100 µM (inactive) | > 100 µM (inactive) | > 100 µM (inactive) | > 100 µM (inactive) | > 100 µM (inactive) | > 100 µM (inactive) | > 100 µM (inactive) | > 100 µM (inactive) | > 100 µM (inactive) | > 100 µM (inactive) | > 100 µM (inactive) | > 100 µM (inactive) | > 100 µM (inactive) | > 100 µM (inactive) | > 100 µM (inactive) | > 100 µM (inactive) |
| CCC(C)SC1SCC2C(=O)N(C)C3(CC3C)C(=O)OCC(NC(=O)c3nc4ccccc4cc3O)C(=O)NC(C)C(=O)N(C)C1C(=O)N(C)C1(CC1C)C(=O)OCC(NC(=O)c1nc3ccccc3cc1O)C(=O)NC(C)C(=O)N2C (stereo not drawn) | 0.000116 µM (active) | – | 0.000219 µM (active) | 1.55e-05 µM (active) | 0.00015 µM (active) | 2.79e-05 µM (active) | 2.6e-05 µM (active) | 4.76e-05 µM (active) | 0.000137 µM (active) | 9.91e-05 µM (active) | 0.00038 µM (active) | 5.3e-05 µM (active) | 5.64e-05 µM (active) | – | 5.78e-05 µM (active) | 0.00018 µM (active) | 4.97e-05 µM (active) | 3.25e-05 µM (active) | 0.000188 µM (active) | 3.18e-05 µM (active) |
| Cc1ccc(OCC2OC(n3cnc4c(Cl)nc(Nc5cc(Cl)cc(Cl)c5)nc43)CC2Oc2ccc(C)cc2)cc1 (stereo not drawn) | > 100 µM (inactive) | > 100 µM (inactive) | 48.9 µM (inactive) | > 100 µM (inactive) | > 100 µM (inactive) | > 100 µM (inactive) | > 100 µM (inactive) | > 100 µM (inactive) | > 100 µM (inactive) | > 100 µM (inactive) | > 100 µM (inactive) | > 100 µM (inactive) | – | – | > 100 µM (inactive) | > 100 µM (inactive) | > 100 µM (inactive) | > 100 µM (inactive) | > 100 µM (inactive) | > 100 µM (inactive) |
| CCOC(=O)C1(N)CC1 | 71 µM (inactive) | > 100 µM (inactive) | 56.8 µM (inactive) | – | > 100 µM (inactive) | > 100 µM (inactive) | > 100 µM (inactive) | > 100 µM (inactive) | > 100 µM (inactive) | > 100 µM (inactive) | > 100 µM (inactive) | > 100 µM (inactive) | > 100 µM (inactive) | > 100 µM (inactive) | > 100 µM (inactive) | > 100 µM (inactive) | > 100 µM (inactive) | > 100 µM (inactive) | > 100 µM (inactive) | > 100 µM (inactive) |
| COc1ccc(/C=C2/NC(=S)N=C2Cl)cc1 | > 100 µM (inactive) | 58.3 µM (inactive) | > 100 µM (inactive) | – | 85.1 µM (inactive) | > 100 µM (inactive) | > 100 µM (inactive) | > 100 µM (inactive) | > 100 µM (inactive) | > 100 µM (inactive) | > 100 µM (inactive) | > 100 µM (inactive) | > 100 µM (inactive) | > 100 µM (inactive) | > 100 µM (inactive) | 21.5 µM (inactive) | > 100 µM (inactive) | > 100 µM (inactive) | > 100 µM (inactive) | > 100 µM (inactive) |
| COc1ccccc1N1C(=O)/C(=C\c2cccc(Oc3ccccc3)c2)S(=O)(=O)C1c1ccccc1 (stereo not drawn) | 41.4 µM (inactive) | 28.2 µM (inactive) | 22.3 µM (inactive) | 17.8 µM (inactive) | > 100 µM (inactive) | 16.7 µM (inactive) | 40.1 µM (inactive) | > 100 µM (inactive) | – | 81.8 µM (inactive) | 10.5 µM (inactive) | 21.7 µM (inactive) | > 100 µM (inactive) | 58.7 µM (inactive) | > 100 µM (inactive) | 89.9 µM (inactive) | 30.8 µM (inactive) | 19 µM (inactive) | 55.6 µM (inactive) | 53.6 µM (inactive) |
| O=C1C(NCCN2CCOCC2)=C(Cl)C(=O)c2ncccc21 | 0.289 µM (active) | 1.34 µM (inactive) | 1.39 µM (inactive) | 0.618 µM (active) | 1.55 µM (inactive) | 1.32 µM (inactive) | 0.168 µM (active) | 0.327 µM (active) | 1.05 µM (active) | 1.4 µM (inactive) | 1.48 µM (inactive) | – | 1.6 µM (inactive) | 1.45 µM (inactive) | 1.58 µM (inactive) | 1.7 µM (inactive) | 0.182 µM (active) | 0.556 µM (active) | 1.01 µM (active) | 0.849 µM (active) |
| Oc1cc(O)c2c(c1)O[C@H](c1cc(O)c(O)c(O)c1)[C@@H](O)C2 [GALLOCATECHIN] | 30.7 µM (inactive) | – | 28.9 µM (inactive) | – | 40.5 µM (inactive) | 19.6 µM (inactive) | 20.5 µM (inactive) | 17 µM (inactive) | 18.8 µM (inactive) | 24.4 µM (inactive) | 24.8 µM (inactive) | > 100 µM (inactive) | 17.5 µM (inactive) | – | 18.7 µM (inactive) | 18.8 µM (inactive) | 18.5 µM (inactive) | 23.5 µM (inactive) | > 100 µM (inactive) | 19.7 µM (inactive) |
